{
  "source": "paper PMC12128972",
  "about": "“TYRA-300, an FGFR3-selective inhibitor, promotes bone growth in two FGFR3-driven models of chondrodysplasia” (JCI Insight, 2025)",
  "assay": "Pharmacokinetic study, single subcutaneous dose, plasma by LC-MS/MS",
  "format": "in vivo, mouse",
  "conditions": "for plasma concentration, individual mice: 1.2 mg/kg s.c.",
  "procedure": "The pharmacokinetic profile of TYRA-300 in adult rats has been previously described ([31]). Because the FGFR3-driven skeletal dysplasia models are performed using neonatal mice, an experiment was designed to understand the pharmacokinetics of TYRA-300 at a relevant efficacious dose in male and female mice, ranging from 1 to 12 weeks of age. In this experiment, TYRA-300 plasma levels were measured following administration of a single 1.2 mg/kg subcutaneous dose. […] There was a similar AUCinf in 2-week-old mice (2,295 h × ng/mL). […] Cytochrome P450 enzymes are commonly responsible for the metabolism of TKIs. In mice, cytochrome P450s are not fully developed until the mice are at least 3 weeks of age ([33]), which may explain the higher level of TYRA-300 exposure in the younger mice.\nC57BL/6J (The Jackson Laboratory) mice were randomized to treatment groups according to body weight. Owing to the young age of some groups, a mixture of female and male mice was used. Depending on the age of mice, 3–8 mice per group were dosed with a single subcutaneous dose of TYRA-300 (1.2 mg/kg) and then blood was collected either serially at 3 different time points (if 4 weeks of age and older) or terminally at a single time point (if 1–3 weeks of age). Mouse plasma was harvested using lithium heparin tubes at 0.5, 1, 4, 6, 8, 12, and 24 hours after dosing. Compound concentration from plasma was detected using liquid chromatography with tandem mass spectrometry at Oakland Analytics.",
  "key": {"[1]": {"conditions": "1.2 mg/kg single s.c., 1-week-old mice"}},
  "note": "Values joined by “and” are separate entries in the source; they are usually repeats but may differ in a detail not shown here. Identical values can stand only once.",
  "data": [
    {"molecule": "C[C@@H](Oc1ccc2[nH]nc(-c3ccc(N4CC5(C4)CN(S(C)(=O)=O)C5)nc3)c2c1)c1c(Cl)cncc1Cl", "note": "[TYRA-300]", "values": [
      {"measurement": "plasma concentration, individual mice", "setting": "1 week old, 12 h, LLOQ 4 ng/mL", "result": "37.7 ng/mL and 35.7 ng/mL and 49.1 ng/mL"},
      {"measurement": "plasma concentration, individual mice", "setting": "1 week old, 24 h, LLOQ 4 ng/mL", "result": "4 ng/mL (2×) and 5.11 ng/mL"},
      {"measurement": "plasma concentration, individual mice", "setting": "1 week old, time 0 h, LLOQ 4 ng/mL", "result": 4, "unit": "ng/mL"},
      {"measurement": "plasma concentration, individual mice", "setting": "2 weeks old, 0.5 h, LLOQ 8 ng/mL", "result": "276 ng/mL and 247 ng/mL and 312 ng/mL"},
      {"measurement": "plasma concentration, individual mice", "setting": "2 weeks old, 1 h, LLOQ 8 ng/mL", "result": "442 ng/mL and 320 ng/mL and 190 ng/mL"},
      {"measurement": "plasma concentration, individual mice", "setting": "2 weeks old, 4 h, LLOQ 8 ng/mL", "result": "196 ng/mL and 308 ng/mL and 157 ng/mL"},
      {"measurement": "plasma concentration, individual mice", "setting": "2 weeks old, 6 h, LLOQ 8 ng/mL", "result": "148 ng/mL and 144 ng/mL and 232 ng/mL"},
      {"measurement": "plasma concentration, individual mice", "setting": "2 weeks old, 8 h, LLOQ 8 ng/mL", "result": "50.3 ng/mL and 95.4 ng/mL and 202 ng/mL"},
      {"measurement": "plasma concentration, individual mice", "setting": "2 weeks old, 12 h, LLOQ 8 ng/mL", "result": "42.2 ng/mL and 29.1 ng/mL and 34.4 ng/mL"},
      {"measurement": "plasma concentration, individual mice", "setting": "2 weeks old, 24 h, LLOQ 8 ng/mL", "result": "8 ng/mL and 10.2 ng/mL and 8.27 ng/mL"},
      {"measurement": "plasma concentration, individual mice", "setting": "2 weeks old, time 0 h, LLOQ 8 ng/mL", "result": 8, "unit": "ng/mL"},
      {"measurement": "plasma concentration, individual mice", "setting": "3 weeks old, 0.5 h, LLOQ 8 ng/mL", "result": "250 ng/mL and 248 ng/mL and 229 ng/mL and 221 ng/mL"},
      {"measurement": "plasma concentration, individual mice", "setting": "3 weeks old, 1 h, LLOQ 8 ng/mL", "result": "293 ng/mL and 238 ng/mL and 250 ng/mL and 251 ng/mL"},
      {"measurement": "plasma concentration, individual mice", "setting": "3 weeks old, 4 h, LLOQ 8 ng/mL", "result": "10.2 ng/mL and 12.5 ng/mL and 17.9 ng/mL and 9.9 ng/mL"},
      {"measurement": "plasma concentration, individual mice", "setting": "3 weeks old, 6 h, LLOQ 8 ng/mL", "result": "8 ng/mL (3×) and 15 ng/mL"},
      {"measurement": "plasma concentration, individual mice", "setting": "3 weeks old, 8 h, LLOQ 8 ng/mL", "result": 8, "unit": "ng/mL"},
      {"measurement": "plasma concentration, individual mice", "setting": "3 weeks old, 12 h, LLOQ 8 ng/mL", "result": "8 ng/mL (3×) and 9.31 ng/mL"},
      {"measurement": "plasma concentration, individual mice", "setting": "3 weeks old, 24 h, LLOQ 8 ng/mL", "result": 8, "unit": "ng/mL"},
      {"measurement": "plasma concentration, individual mice", "setting": "3 weeks old, time 0 h, LLOQ 8 ng/mL", "result": 8, "unit": "ng/mL"},
      {"measurement": "plasma concentration, individual mice", "setting": "4 weeks old, 0.5 h, LLOQ 8 ng/mL", "result": "102 ng/mL and 115 ng/mL and 172 ng/mL and 145 ng/mL and 197 ng/mL"},
      {"measurement": "plasma concentration, individual mice", "setting": "4 weeks old, 1 h, LLOQ 8 ng/mL", "result": "169 ng/mL and 242 ng/mL and 178 ng/mL and 48 ng/mL"},
      {"measurement": "plasma concentration, individual mice", "setting": "4 weeks old, 4 h, LLOQ 8 ng/mL", "result": "39 ng/mL and 12 ng/mL (2×) and 10 ng/mL"},
      {"measurement": "plasma concentration, individual mice", "setting": "4 weeks old, 6 h, LLOQ 8 ng/mL", "result": "8 ng/mL (3×) and 16 ng/mL"},
      {"measurement": "plasma concentration, individual mice", "setting": "4 weeks old, 8 h, LLOQ 8 ng/mL", "result": 8, "unit": "ng/mL"},
      {"measurement": "plasma concentration, individual mice", "setting": "4 weeks old, 12 h, LLOQ 8 ng/mL", "result": 8, "unit": "ng/mL"},
      {"measurement": "plasma concentration, individual mice", "setting": "4 weeks old, 24 h, LLOQ 8 ng/mL", "result": 8, "unit": "ng/mL"},
      {"measurement": "plasma concentration, individual mice", "setting": "4 weeks old, time 0 h, LLOQ 8 ng/mL", "result": 8, "unit": "ng/mL"},
      {"measurement": "plasma concentration, individual mice", "setting": "6 weeks old, 0.5 h, LLOQ 8 ng/mL", "result": "150 ng/mL and 198 ng/mL and 171 ng/mL and 172 ng/mL"},
      {"measurement": "plasma concentration, individual mice", "setting": "6 weeks old, time 0 h, LLOQ 8 ng/mL", "result": 8, "unit": "ng/mL"},
      {"measurement": "AUCinf of 3- through 12-week-old mice, times lower than average of 1- and 2-week-old mice", "setting": "1.2 mg/kg single s.c.", "result": "about 3.8 times"},
      {"measurement": "maximum observed concentration", "setting": "[1]", "result": 287, "unit": "ng/mL"},
      {"measurement": "mean AUCinf", "setting": "[1]", "result": "1,789 h*ng/mL"},
      {"measurement": "mean AUCinf", "setting": "1.2 mg/kg single s.c., 2-week-old mice", "result": "2,295 h*ng/mL"},
      {"measurement": "average AUCinf", "setting": "1.2 mg/kg single s.c., 3- through 12-week-old mice", "result": 538, "unit": "ng·h/mL"}
    ]}
  ]
}
